Experimental data reported in patent US20250230413A1, “METHODS AND SYSTEMS FOR THE CULTURE OF CELLS AT LIQUID-LIQUID INTERFACES” (Queen Mary University of London, priority 2022, published 2025).

Legend:
iPSCs = assay: Cardiomyocyte differentiation of iPSCs on βLG-SMCC-VN microdroplets or EBs, flow cytometry of TNNT2+; type: cell-based, human; settings: differentiation initiated 2 days after seeding, CDM3 medium
Experimental: Embryoid bodies Formation. Polyvinyl alcohol (PVA) was dissolved in E8 flex medium overnight to achieve a concentration of 4% PVA. This was then filtered and supplemented with 10 μM Y-27632. iPSCs were dissociated with Gentle Cell Dissociation Reagent according to manufacturer's instructions. After centrifugation, cells were counted. An aliquot of the cell suspension is then taken and centrifuged at 120×g for 3 minutes. The cell pellet was then resuspended in E8 flex with PVA and Y-27632 to achieve a cell concentration of 1×10^6 cells/mL. A petri dish was then filled with sterile water. The lid was then placed upside down and multiple 10 μL drops of the cell suspension was then placed on the lid. The lid was then placed back on the petri dish resulting in hanging droplets. After 24 hours, 30 embryoid bodies were transferred to a well of an ultra-low attachment 6-well plate filled with E8 flex medium.
Cardiomyocyte Differentiation. The iPSCs were seeded on microdroplets and tissue culture plastic controls in E8 flex medium supplemented with Y-27632, a ROCK inhibitor. After 24 hours, the medium was replaced with E8 flex medium. […]
Flow Cytometry. […] Cells were then counted and stained with the staining solution for surface markers. […] Stained cells were analysed with BD LSRII. […] The data was analysed using FlowJo software.

HEK293T cells = settings: HEK293T on BSA interfaces for 22 days
Experimental: Cell seeding on emulsions. HEK293T cells, human iPSCs, Human primary keratinocytes and human MSCs were cultured according to manufacturer's instructions. For cell culture, 500 μL of corresponding medium was transferred per well in a 24 well plate treated with 25 μg/mL poly(L-lysine)-graft-polyethylene glycol (PLL-g-PEG, SuSoS). Then, 100 μL of emulsion were transferred per well. Different cell densities were used depending on the cell type. Being 10^4 cells/well for HEK293T, 4×10^4 cells/well for iPSCs, and 4×10^4 cells/well for MSCs.
Proliferation assay CCK8. Proliferation assays were performed using the Cell Counting Kit-8 (Dojindo, Kumamoto, Japan). HEK293T growing on emulsions were incubated with 100 μl CCK-8 reagent for 4 hours at 37° C. over different time-points, and optical density at 450 nm was measured.

MSCs [1] = assay: Growth of MSCs at crosslinked βLG and BSA nanosheets (Novec 7500 interfaces); type: cell-based, human; settings: MSCs growing for 5 days; interfaces crosslinked by sulfo-SMCC (1 mg/ml, pH 7.4), fibronectin coupled
Experimental: (§1) Human Bone Marrow Derived Mesenchymal Stem Cell culture and seeding. hBM-MSCs were purchased from PromoCell and cultured according to the supplier's recommendations.
Generation of fluorinated pinned droplets for cell culture. Thin glass slides (25×60 mm, VWR) were washed with isopropanol and dried under nitrogen, prior to plasma oxidation for 10 min (Henniker Plasma HPT-200). Slides were then placed into an anhydrous ethanol solution (9.5 mL) containing trichloro-1H,1H,2H,2H-perfluorooctyl silane (97%, Sigma-Aldrich) (500 μL) for 1 h, at room temperature. The fluorinated glass slides were cut into chips (1×1 cm) and placed into a 24 well plate (for Hoechst staining), or the glass slides were kept at their original dimensions and embedded on sticky-slide 8 wells plates (Ibidi), for imaging on a confocal microscope. After sterilization with 70% ethanol, the wells were washed (once) and then filled with 2 mL (or 600 μL for the sticky wells) of PBS (pH 7.4 for βLG, Fibrinogen and different BSA types, and pH 10.5 for poly(L-lysine), PLL). 100 μL of fluorinated oil (or 10 μL for the sticky wells), with or without fluorinated surfactant (10 μg/mL) were added to the surface of the glass slide, forming a fluorinated pinned droplet. For samples prepared in 24 well plates, 30 μL of the oil phase was removed using a micropipette, to form a flatter oil droplet. […]
Immuno-fluorescence staining.

MSCs [2] = assay: Scale-up growth of MSCs on fluorinated oil/MA-BSA bioemulsions in 250 ml flask; type: cell-based, human; settings: 15 days, 250 ml flask under agitation
Experimental: as §1
RGD peptide coupling to biofunctionalised BSA. For the preparation of emulsions, RGD peptide coupling to functionalized BSA molecules was performed first. RGD peptide concentration was determined for each functionalized BSA formulation to enable coupling of 10 peptides per BSA molecule. Custom peptides were designed to allow reaction with functional groups in the modified BSA backbone. GCGGRGDSPG peptide was coupled to NB-BSA via […] in the presence of 1% lithium phenyl-2,4,6-trimethylbenzoylphosphinate (LAP, Sigma-Aldrich), crosslinking was performed with 405 nm blue light for 3 min. at 20 mW/cm2. CGGRGDSPG peptide was conjugated to AC-BSA and MA-BSA via […] in PBS pH 9 for at least 3 hours. The same procedure was used for FITC-RGD bearing peptides.
Conical flask bioreactor scale-up. Scale up of the MA-BSA bioemulsions system was performed on 250 ml polycarbonate Erlenmeyer flasks (Corning) with Vent caps, using a total amount of medium of 50 ml. […] Cell numbers/surface area used in bioemulsions and 2D conditions were the same (1000 cells/cm^2) and calculated assuming and average diameter of 100 μm for the bioemulsions. […]

Cc1c[nH]c(-c2cnc(NCCNc3ccc(C#N)cn3)nc2-c2ccc(Cl)cc2Cl)n1 [CHIR99021]
Percentage of TNNT2+ (whether differentiation works) (iPSCs; CHIR99021 6 μM, varying Wnt-C59): consistently works across conditions except for 230 μm microdroplets when 5 μM of Wnt-C59 is used
Percentage of TNNT2+ (whether differentiation works) (iPSCs; higher CHIR99021 concentration (above 6 μM)): only works for microdroplets and only when followed by 5 μM Wnt-C59

Bovine Serum Albumin [BSA]
proliferation after long-term culture (HEK293T cells): high proliferation
cell adhesion to the interface (vinculin staining) (MSCs [1]): excellent cell adhesion

MS-BSA: methacrylated BSA
coverage of bioemulsion surface by cells (MSCs [2]): cells cover all the available surface of the bioemulsions
